Measurements reported in patent EP1212309B1, “CASPASE INHIBITOR” (LG Chem Investment, Ltd., priority 1999, dated 2001).

Legend:
[1] = test system: Jurkat T cell; experiment: MTT assay of cell death induced by Anti-FAS antibody CH11; assay type: cell-based; settings: Homo sapiens; Jurkat T cell treated with Anti-FAS antibody CH11, MTT; read-out: ED50 FAS Induced cell death
[2] = molecular target: T1, caspase-3 (Homo sapiens, UniProt P42574); experiment: Screening on caspases inhibiting activity (recombinant enzyme, fluorogenic AMC substrate); assay type: biochemical; settings: Irreversible Inhibitors; for kinact/KI: read-out: Kobs/[I] for caspase-3
T1 construct: made in house
T1 sequence (P42574 29-175 limits assumed): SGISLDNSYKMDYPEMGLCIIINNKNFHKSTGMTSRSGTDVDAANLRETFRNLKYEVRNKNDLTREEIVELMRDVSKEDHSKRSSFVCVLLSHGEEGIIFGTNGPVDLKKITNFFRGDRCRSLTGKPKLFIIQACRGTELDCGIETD
T1 sequence (P42574 176-277 limits assumed): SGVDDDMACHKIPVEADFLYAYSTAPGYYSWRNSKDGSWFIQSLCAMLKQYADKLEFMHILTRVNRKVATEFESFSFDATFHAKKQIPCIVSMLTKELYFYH
Procedure: (§1) In the present experiment, recombinant caspases were purified from a transformed bacterium after human caspase genes were cloned into the expression vector pET, and then used in the experiment (Thornberry, N.A. et .al. Nature, 1992, 356, 768. Thombeny, N.A. Methods in Enzymology, 1994, 615.).
(§2) Enzymatic activity was measured by a known procedure (Walker N.P.C. et al., Cell 1994, 78, 343). Briefly, 10 ng of recombinant protein was mixed with 50 mM Tris(pH 7.0), 1mM DTT, 0.5 mM EDTA, 10% Glycerol buffer containing 1∼100 µM of enzyme substrate, Ac-YVAD-AMC or Ac-DEVD-AMC and then the changes by isolated AMC at 37°C were recorded. The inhibitory activity for caspases was calculated from the early enzyme reaction rate by measuring the changes with fluorescence excited at […] and emitted at 460 nm (Range; Ki<100nM).

[3] = molecular target: T2, caspase-1 (Homo sapiens, UniProt P29466); experiment: as above; assay type: biochemical; settings: Irreversible Inhibitors; for kinact/KI: read-out: Kobs/[I] for caspase-1
T2 construct: made in house
T2 sequence (P29466 120-297 limits assumed): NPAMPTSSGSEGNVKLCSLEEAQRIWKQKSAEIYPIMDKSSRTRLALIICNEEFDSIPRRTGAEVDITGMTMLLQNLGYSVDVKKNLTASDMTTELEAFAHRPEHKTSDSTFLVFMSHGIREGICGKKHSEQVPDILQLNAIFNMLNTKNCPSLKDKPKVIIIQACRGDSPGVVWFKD
T2 sequence (P29466 317-404 limits assumed): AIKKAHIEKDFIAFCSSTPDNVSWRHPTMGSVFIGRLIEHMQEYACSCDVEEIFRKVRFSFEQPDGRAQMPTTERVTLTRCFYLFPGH
Procedure: as §1, §2

[4] = test system: TNFα -mediated liver toxicity; experiment: TNFα-mediated liver toxicity and mortality in mice; assay type: in vivo, C57BL/6 female mice
[5] = test system: anti-Fas antibody-induced liver apoptosis; experiment: Anti-Fas antibody (Jo2)-induced liver apoptosis and lethality in mice; assay type: in vivo, C57BL/6 female mice
Procedure: […] C57BL/6 female mice(18-20 g) were injected i.p. with compound 33MP dissolved in vehicle which consists of olive oil and 10% DMSO, or vehicle alone, at 1 hr before i.v. injection with 10 µg of Anti-Fas antibody (Jo2). Following 4 hrs of i.v. injection with Jo2 antibody, animals were placed under inhaled isoflurane anesthesia for blood collection and liver isolation. Mice were also i.p. injected with 0.2 µg/20 g of TNFα and 12 mg/20 g of D-galactosamine(TNFα /GalN) and compound 33MP or its salt form (Compound 33MP-Na). 8 hrs later, blood and liver tissues were isolated from anesthetized animals. The liver tissues were snap-frozen and stored at -80° C until use. Plasma was isolated from blood by centrifugation at 12,000 x g for 10 min at 4° C and stored at -80° C. In some experiments for animal mortality, mice were i.p. injected with TNFα /GalN and caspase inhibitor was injected 1 hr before, simultaneously, 2 hrs, or 4 hrs after TNFα /GalN injection.
Whole tissues (0.5 g) were homogenated in ice-cold lysis buffer (5 mM Tris, 20 mM EDTA, 0.5% Triton-X 100, pH8.0). The lysate was centrifuged at 12,000 x g for 20 min at 4° C. The supernatant was obtained and extracted twice with a mixture of phenol and chloroform. One-tenth volume of 3 M sodium acetate was added to the solution, and DNA was precipitated by adding an equal volume of isopropanol. After storing at -20° C overnight, a DNA pellet was obtained by centrifugation at 12,000 x g for 15 min. at 4 ° C and washed twice with 75% ethanol. The pellet was dried and resuspended in 100 µl of 20 mM Tris-HCl, pH 8.0. After digesting RNA with DNase-free RNase (0.1 mg/ml) at 37 ° C for 1 hr, samples […] were electrophoresed through a 1.2% agarose gel in […] Tris borate + EDTA (TBE), pH 8.0 buffer. DNA was photographed under visualized with UV light.
Liver tissues were homogenated in 10 mM HEPES buffer containing protease inhibitors (5 µg/ml aprotinin, 5 µg/ml pepstatin A, 10 µg/ml leupeptin, and 0.5 mM PMSF) and lysed by three freeze/thaw cycles. The cytosolic fraction was obtained by centrifugation at 12,000 x g for 20 min. at 4" C. Protein concentration was determined with BCA protein assay reagent (pierce, Rockford, IL). Cytosol containing 200 µg protein was combined in 96-well plate with […] of synthetic substrate Ac-DEVD-pNA in 150 µl of 100 mM HEPES, pH 7.4, containing the protease inhibitors, and the reaction was conducted for 1 hr at 37° C. […] Plasma level of aspartate aminotransferase (AST) was analyzed by spectrophotometry using each enzyme assay kit (Sigma).

[6] = mice treated with TNFα /ActD (so in the source)

Row | SMILES | EC50 [1] | kinact/KI [2] | kinact/KI [3] | further results
1 | CC(C)[C@H](NC(=O)CCc1ccccc1)C1=NOC(Cc2ccccc2)(C(=O)N[C@@H](CC(=O)O)C(=O)COC(=O)c2c(Cl)cccc2Cl)C1 (mixture of isomers) [Compound 32, (3S)-3-{3-[2-methyl-(1S)-1-(phenylethylcarbonylamino)-propyl]-5-phenylmethyl-4,5-dihydro-isoxazole-5-carbonylamino}-4-keto-5-(2,6-dichlorobenzoyloxy)-pentanoic acid] | 1 to 10 µM | 114 M⁻¹ s⁻¹ | 130000 M⁻¹ s⁻¹ | 
2 | CC1(C(=O)N[C@@H](CC(=O)O)C(=O)COC(=O)c2c(Cl)cccc2Cl)CC([C@H](CCC(=O)O)NC(=O)CCC(=O)O)=NO1 (single isomer, unassigned) [Compound 72] | 1 to 10 µM | 176000 M⁻¹ s⁻¹ | 30800 M⁻¹ s⁻¹ | 
3 | CCCC1(C(=O)N[C@@H](CC(=O)O)C(=O)COC(=O)c2c(Cl)cccc2Cl)CC([C@@H](NC(=O)CCC(=O)O)C(C)C)=NO1 (single isomer, unassigned) [Compound 76] | 1 to 10 µM | 197000 M⁻¹ s⁻¹ | 14000 M⁻¹ s⁻¹ | 
4 | CCCCC1(C(=O)N[C@@H](CC(=O)O)C(=O)COC(=O)c2c(Cl)cccc2Cl)CC([C@@H](NC(=O)CCC(=O)O)C(C)C)=NO1 (single isomer, unassigned) [Compound 80] | 1 to 10 µM | 1.14e+06 M⁻¹ s⁻¹ | 14900 M⁻¹ s⁻¹ | 
5 | CC(C)[C@H](NC(=O)c1cccc2ccccc12)C1=NOC(Cc2ccccc2)(C(=O)N[C@@H](CC(=O)O)C(=O)COC(=O)c2c(Cl)cccc2Cl)C1 (stereo partly drawn) [Compound 33mp, (3S)-3-{3-[2-methyl-(1S)-1-(1-naphthalenecarbonylamino)-propyl]-5-phenylmethyl-4,5-dihydro-isoxazole-5-carbonylamino}-4-keto-5-(2,6-dichlorobenzoyloxy)-pentanoic acid] | 1 to 10 µM | 500 M⁻¹ s⁻¹ | 807000 M⁻¹ s⁻¹ | animals survived ([4]; TNFα /ActD-mediated mouse mortality, within 24 hrs): 80%; DNA fragmentation in liver tissues [4, 6]: significantly reduced; caspase-3-like activity in liver [4, 6]: suppressed; release of AST [4, 6]: suppressed; liver apoptosis as determined by DNA fragmentation ([5]; 0.4 mg/20 g, 1 mg/20 g i.p. 1 hr before anti-Fas antibody, 4 hrs after antibody): suppressed the liver apoptosis in a dose-dependent manner; release of liver enzyme AST ([5]; anti-Fas antibody-treated mice): significantly suppressed; reduction of mortality ([5]; anti-Fas antibody-treated mice (85% died within 24 hrs without treatment)): about 30%; caspase-3-like activity in liver tissues ([5]; anti-Fas antibody-treated mice, Ac-DEVD-pNA): abrogated
6 | CC(C)[C@H](NC(=O)c1ccc2ccccc2n1)C1=NOC(Cc2ccccc2)(C(=O)N[C@@H](CC(=O)O)C(=O)COC(=O)c2c(Cl)cccc2Cl)C1 (stereo partly drawn) [Compound 42mp, (3S)-3-{3-[2-methyl-(1S)-1-(quinoline-2-yl-carbonylamino)-propyl]-5-phenylmethyl-4,5-dihydro-isoxazole-5-carbonylamino}-4-keto-5-(2,6-dichlorobenzoyloxy)-pentanoic acid] | 1 to 10 µM | 160 M⁻¹ s⁻¹ | 408000 M⁻¹ s⁻¹ | 
7 | CC(C)[C@H](NC(=O)c1cccc2ccccc12)C1=NOC(Cc2ccccc2)(C(=O)N[C@@H](CC(=O)O)C(=O)COC(=O)c2c(F)cccc2F)C1 (stereo partly drawn) [Compound 58, (3S)-3-{3-[2-methyl-(1S)-1-(naphthalene-1-carbonylamino)-propyl]-5-phenylmethyl-4,5-dihydro-isoxazole-5-carbonylamino}-4-keto-5-(2,6-difluorobenzoyloxy)-pentanoic acid] | 1 to 10 µM | 371 M⁻¹ s⁻¹ | 577000 M⁻¹ s⁻¹ | 
8 | CC(C)[C@H](NC(=O)CCC(=O)O)C1=NOC(Cc2ccccc2)(C(=O)N[C@@H](CC(=O)O)C(=O)COC(=O)c2c(Cl)cccc2Cl)C1 (stereo partly drawn) [Compound 86, (3S)-3-{3-[2-methyl-(1S)-1-(succinoylamino)-propyl]-5-phenylmethyl-4,5-dihydro-isoxazole-5-carbonylamino}-4-keto-5-(2,6-dichlorobenzoyloxy)-pentanoic acid] |  |  |  | Kobs/[I] for caspase-3 [2]: 28000 M⁻¹ s⁻¹; Kobs/[I] for caspase-1 [3]: 7560 M⁻¹ s⁻¹
9 | COCC1(C(=O)N[C@@H](CC(=O)O)C(=O)COC(=O)c2c(Cl)cccc2Cl)CC([C@@H](NC(=O)CCC(=O)O)C(C)C)=NO1 (stereo partly drawn) [Compound 87, (3S)-3-{3-[2-methyl-(1S)-1-(succinoylamino)-propyl]-5-methoxymethyl-4,5-dihydro-isoxazole-5-carbonylamino}-4-keto-5-(2,6-dichlorobenzoyloxy)-pentanoic acid] |  |  |  | Kobs/[I] for caspase-3 [2]: 27400 M⁻¹ s⁻¹; Kobs/[I] for caspase-1 [3]: 3400 M⁻¹ s⁻¹
